Results reported in PMC9967275, “Screening the Pathogen Box to Discover and Characterize New Cruzain and TbrCatL Inhibitors” (Pathogens, 2023).

What was measured:
cruzain = cruzain (Trypanosoma cruzi, UniProt P25779); test: biochemical; conditions: for Cruzain 0’ Inhibition / Cruzain 10’ Inhibition: sheet "Screening results"
Protocol: (§1) Allison Doak and Prof. Brian Shoichet (University of California San Francisco, San Francisco, CA, USA) and Prof. Conor Caffrey (University of California San Diego, San Diego, CA, USA) generously provided recombinant cruzain and TbrCatL, respectively. In vitro activity of proteases cruzain and TbrCatL was assayed as previously described. Briefly, enzyme activity was measured by monitoring the cleavage of the fluorogenic substrate […] (Z-FR-AMC) at 25 °C. Fluorescence was monitored at 340/440 nm (excitation/emission) over 5–7 min in a Synergy2 Biotek plate reader. […] DMSO and 1 μM E-64 were employed as negative and positive controls, respectively, in all assays. Two conditions were employed for both enzymes: 10′ pre-incubation of the enzyme in the presence of the compound (10′ inc) and no pre-incubation (0′). Reported values correspond to the mean and standard error of the mean (SEM) and all analyses were performed using GraphPad Prism 6.0.
(§2) For the initial screening, compounds were assayed at 5 μM. […] IC50 curves were obtained from a non-linear fit of at least seven distinct compound concentrations, in triplicate. Reported IC50 values are the mean and SEM of two independent measurements.

TbrCatL = target: T1, TbrCatL (Trypanosoma brucei rhodesiense, UniProt Q95PM0); test: TbrCatL enzymatic inhibition assay (cleavage of fluorogenic substrate Z-FR-AMC); format: biochemical; conditions: for TbrCatL 0’ Inhibition / TbrCatL 10’ Inhibition: sheet "Screening results"
T1 construct: Conor Caffrey (University of California San Diego)
T1 sequence (Q95PM0 entry or part of it): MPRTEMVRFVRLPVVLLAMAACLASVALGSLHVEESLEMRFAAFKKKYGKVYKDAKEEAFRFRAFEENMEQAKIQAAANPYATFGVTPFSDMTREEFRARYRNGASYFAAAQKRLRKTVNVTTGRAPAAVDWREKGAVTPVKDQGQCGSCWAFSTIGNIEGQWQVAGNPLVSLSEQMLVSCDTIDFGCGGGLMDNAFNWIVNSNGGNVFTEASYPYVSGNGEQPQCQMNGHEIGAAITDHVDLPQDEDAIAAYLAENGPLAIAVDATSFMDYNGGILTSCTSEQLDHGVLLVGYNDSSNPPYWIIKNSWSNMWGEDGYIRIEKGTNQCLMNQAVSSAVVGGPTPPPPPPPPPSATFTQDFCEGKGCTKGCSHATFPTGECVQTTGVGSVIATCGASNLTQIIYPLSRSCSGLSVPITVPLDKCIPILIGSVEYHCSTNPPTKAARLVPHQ
Protocol: as §1, §2

[1] = 0’ (pre-incubation time), Pathogen Box screening results
[2] = 10’ (pre-incubation time), Pathogen Box screening results
[3] = 0’ (no pre-incubation), sheet Screening results
[4] = 10’ (pre-incubation), sheet Screening results
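Further: at 5 µM compound concentration.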

Chain of cruzain (P25779 123-337 limits assumed): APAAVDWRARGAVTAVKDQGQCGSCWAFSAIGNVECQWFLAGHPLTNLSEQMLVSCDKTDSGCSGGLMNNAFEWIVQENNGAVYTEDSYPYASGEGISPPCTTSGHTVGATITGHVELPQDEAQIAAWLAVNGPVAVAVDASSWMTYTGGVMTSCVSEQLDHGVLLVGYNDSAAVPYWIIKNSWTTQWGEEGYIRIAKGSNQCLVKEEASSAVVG

| Structure (SMILES) | Cruzain Inhibition 0’ (cruzain; [3]) | Cruzain Inhibition 10’ (cruzain; [4]) | TbrCatL Inhibition 0’ (TbrCatL; [3]) | TbrCatL Inhibition 10’ (TbrCatL; [4]) | Cruzain 0’ Inhibition (cruzain; 0’ (pre-incubation time)) | Cruzain 10’ Inhibition (cruzain; 10’ (pre-incubation time)) | TbrCatL 0’ Inhibition (TbrCatL; 0’ (pre-incubation time)) | TbrCatL 10’ Inhibition (TbrCatL; 10’ (pre-incubation time)) | other results |
| --- | --- | --- | --- | --- | --- | --- | --- | --- | --- |
| CC(=O)OC[C@H]1O[C@@H]([S-])[C@H](OC(C)=O)[C@@H](OC(C)=O)[C@@H]1OC(C)=O.CC[PH+](CC)CC.[Au] [MMV688978] | – | – | – | – | – | – | – | – | Cruzain Inhibition 0’ (cruzain; [1]): -20%; Cruzain Inhibition 10’ (cruzain; [2]): -71%; TbrCatL Inhibition 0’ (TbrCatL; [1]): -13%; TbrCatL Inhibition 10’ (TbrCatL; [2]): -63% |
| COc1ccccc1C(C)NCC(=O)Nc1cc(C(F)(F)F)ccc1Cl (stereo not drawn) [MMV020321] | 0.3% | -0.8% | -9% | -10% | – | – | – | – | – |
| COc1ccc(C2=NN(C3CCCCCC3)C(=O)C2(C)C)cc1OCc1ccccn1 [MMV688360] | 14% | 11% | 13% | 16% | – | – | – | – | – |
| Cc1nc(-c2ccccn2)nc(N(C)CCc2ccccc2)c1Cl [MMV658988] | – | – | – | – | – | – | – | – | Cruzain Inhibition 0’ (cruzain; [1]): -3%; Cruzain Inhibition 10’ (cruzain; [2]): 14%; TbrCatL Inhibition 0’ (TbrCatL; [1]): -5.5%; TbrCatL Inhibition 10’ (TbrCatL; [2]): 10% |
| N#Cc1nc(-c2ccccc2F)oc1NCCc1ccccc1 [MMV676384] | – | – | – | – | 7% | 6% | 3.4% | 7% | – |
| N#Cc1ccc(-c2ccc(OCC(N)=O)cc2)cc1 [MMV053220] | -9% | -5% | -5.7% | -7% | – | – | – | – | – |
| COc1nc2ccc(Br)cc2cc1[C@@H](c1ccccc1)[C@@](O)(CCN(C)C)c1cccc2ccccc12 [MMV689758] | 19% | 10% | 9% | -1.4% | – | – | – | – | – |
| O=C(NC1=NCCS1)c1sc2cc(F)ccc2c1Cl [MMV676584] | -2.7% | 9% | -0.5% | -9% | – | – | – | – | – |
| Cc1cc(C2=NOC(c3cc(Cl)c(F)c(Cl)c3)(C(F)(F)F)C2)ccc1C(=O)NCc1ccc2c(c1)C(C)(C)OB2O (stereo not drawn) [MMV687776] | 25% | 17% | -0.1% | -4.5% | – | – | – | – | – |
| O=C(Nc1nc(-c2ccccn2)cs1)C1CC1c1ccccc1F (stereo not drawn) [MMV1028806] | 24% | 17% | 17% | 3.6% | – | – | – | – | – |
| O=C1O[C@@H](CO)CN1c1cc(F)c(C2=CCN(Cc3ccccc3)CC2)c(F)c1 [MMV687729] | – | – | – | – | -2% | 6% | -0.7% | -6.5% | – |
| COc1cccn2c(C(=O)N3CCCCC3)c(C(F)(F)F)nc12 [MMV1110498] | 8% | 9% | 13% | 6.4% | – | – | – | – | – |
| CC(C)NCC(=O)Nc1cccc(C(=O)Nc2cccc(C(F)(F)F)c2)c1 [MMV020165] | – | – | – | – | -1.7% | 12% | 1.8% | 5% | – |
| O=C(Nc1ccc2c(c1)B(O)OC2)c1ccccc1C(F)(F)F [MMV652003] | 22% | 16% | -5.6% | -1.7% | – | – | – | – | – |
| O=C(NCc1nnc2n1CCCCC2)c1ccc(-c2ccc(F)cc2)o1 [MMV688796] | 15% | 7% | 7% | -2.4% | – | – | – | – | – |
| CN1CCC(c2cc(-c3ccncc3)c(-c3ccc(F)cc3)[nH]2)CC1 [MMV688703] | – | – | – | – | 3.7% | 1.9% | 6% | 3.6% | – |
| COc1ccc(CN2CCOc3ccc(C(C)(O)CN(C)C)cc3C2)cc1C (stereo not drawn) [MMV008439] | 0.3% | 0% | -5% | -3.4% | – | – | – | – | – |

| Structure (SMILES) | Cruzain Inhibition 0’ (cruzain; [3]) | Cruzain Inhibition 10’ (cruzain; [4]) | TbrCatL Inhibition 0’ (TbrCatL; [3]) | TbrCatL Inhibition 10’ (TbrCatL; [4]) | Cruzain 0’ Inhibition (cruzain; 0’ (pre-incubation time)) | Cruzain 10’ Inhibition (cruzain; 10’ (pre-incubation time)) | TbrCatL 0’ Inhibition (TbrCatL; 0’ (pre-incubation time)) | TbrCatL 10’ Inhibition (TbrCatL; 10’ (pre-incubation time)) | other results |
| --- | --- | --- | --- | --- | --- | --- | --- | --- | --- |
| COc1ccc(Cn2cnc3c(-c4ccco4)nc(Cl)nc32)cc1 [MMV687170] | – | – | – | – | 6% | 7% | 15% | 3.4% | – |
| Cc1cc(Nc2ccncc2)n2nc(C)c(-c3ccccc3Cl)c2n1 [MMV016136] | 4.7% | 4.5% | 3.2% | 6% | – | – | – | – | – |
| Nc1ncc(-c2cn[nH]c2)cc1-c1nc2cc(Cl)cnc2[nH]1 [MMV023370] | – | – | – | – | -3.5% | 8% | 3.3% | -1.5% | – |
| CCCCCCCCCCCCCCCCOP(=O)([O-])OCC[N+](C)(C)C [MMV688990] | – | – | – | – | – | – | – | – | Cruzain Inhibition 0’ (cruzain; [1]): -0.1%; Cruzain Inhibition 10’ (cruzain; [2]): 0.6%; TbrCatL Inhibition 0’ (TbrCatL; [1]): -2.4%; TbrCatL Inhibition 10’ (TbrCatL; [2]): -12% |
| COc1cccc(OCC(=O)c2ccc(Br)cc2)c1 [MMV676379] | 8% | 14% | 9% | 20% | – | – | – | – | – |
| CC(c1cc(Cl)cc(Cl)c1)N(C)c1ncc2c(N)nc(N)nc2n1 (stereo not drawn) [MMV689437] | – | – | – | – | -3% | 9% | -12% | 3.6% | – |
| Cc1cc(=O)[nH]c(-n2nc(C)cc2C)n1 [MMV393995] | – | – | – | – | – | – | – | – | Cruzain Inhibition 0’ (cruzain; [1]): -12%; Cruzain Inhibition 10’ (cruzain; [2]): -0.3%; TbrCatL Inhibition 0’ (TbrCatL; [1]): -13%; TbrCatL Inhibition 10’ (TbrCatL; [2]): -7% |
| COc1ccc2nc(C)cc(OCC(=O)NCc3ccccc3)c2c1 [MMV687189] | – | – | – | – | 4.5% | -1.1% | 2.6% | 5% | – |
| Cc1cc(NC(=O)c2ccc(S(=O)(=O)N(Cc3ccccc3)C(C)C)cc2)no1 [MMV007133] | – | – | – | – | -3% | -4.5% | -7% | -11% | – |
| CNC(=O)C1Cc2ccccc2N1C(=O)Cc1ccc(F)cc1 (stereo not drawn) [MMV188296] | 10% | 10% | 14% | 13% | – | – | – | – | – |
| CCc1ccc(C(NCc2nc(N)nc(N(C)C)n2)C(C)C)cc1 (stereo not drawn) [MMV1019989] | – | – | – | – | -10% | -7% | -6% | -5% | – |
| COc1ccc(C(=N)N)cc1-c1cn(-c2ccc(C(=N)N)cc2)nn1 [MMV675998] | – | – | – | – | 6% | 26% | 2% | 34% | – |
| C[C@]1(COc2ccc(N3CCC(Oc4ccc(OC(F)(F)F)cc4)CC3)cc2)Cn2cc([N+](=O)[O-])nc2O1 [MMV688262] | – | – | – | – | -0.1% | -0.4% | 0.7% | -1.4% | – |
| Cc1cc(NC(=O)c2ccc(Oc3ccc(Cl)cc3O)o2)no1 [MMV688955] | – | – | – | – | -9% | -13% | -6% | -12% | – |
| CCCc1ccc(S(=O)(=O)Nc2ccc(CN3CCN(CC4CC4)CC3)cc2)cc1 [MMV688125] | – | – | – | – | 4.4% | 9% | -2.3% | -4.7% | – |
| COc1cc(NC(=O)Cc2nn(C)c(=O)c3ccccc23)ccc1Cl [MMV676053] | – | – | – | – | 0% | 1.7% | 1.2% | 1.5% | – |
